Common to all, as to assay type: cell-based
In test [1] the test system is Sixty cell lines representing blood cancer histologies. In words: Sensitivity to PI3K inhibition in sixty cancer cell lines (MTT). Particulars: BKM120 and BEZ235 in all 60 cell lines; BGT226 in 31 cell lines; read-out: observed IC50s, range over the cell lines. The source says:
(§1) A total of 60 cell lines representative of different cancer types were obtained from the ATCC and grown and maintained in accordance with the provided guidelines. The cell lines represented the following distinct histologies: mantle cell lymphoma (5 lines: JVM13, Rec1, Mino, JVM2, Jeko); germinal center B-cell derived (“GCB”) DLBCL (19 lines: Farage, BJAB, Ly1, Ly2, Ly7, Ly8, Ly19, HBL2, HT, Karpas422, Pfeiffer, RCK8, RL, Sci-1, Ski, SUDHL4, SUDHL7, Toledo, WSU-NHL); primary mediastinal B-cell lymphoma (“PMBL”) (3 lines: K1106, MEDB1, U2940); Burkitt lymphoma (11 lines: Daudi, CA46, EB1, EB2, EB3, Jijoye, Raji, Ramos, Namwala, BL2, BL41); Hodgkin lymphoma (3 lines: RMPI6666, L1236, L428); activated B-cell derived (“ABC”) DLBCL (6 lines: Ly3, HBL1, TMD8, Ly10, Riva, U2932); multiple myeloma (6 lines: U266, SKMM1, RPMI8226, KMS12, IM9, H929); acute myelogenous leukemia (“AML”) (2 lines: U937, KG1); acute lymphoblastic leukemia (“ALL”) (2 lines: Reh, SR); and T-cell lymphoma (3 lines: Molt4, RPMI8402, Jurkat). The cell lines were tested within six months after resuscitation.
The 3-(4,5-dimethylthiazol-2-yl)-2,5-diphenyltetrazolium bromide (MTT) cell viability assay was used to determine cell viability in response to drug treatment. Five replicates per concentration tested were carried out in serial dilutions with a total of ten concentrations with a 50% reduction in drug concentration per dilution for each plate. A total of 15 μl of MTT reagent was added to each drug-treated well and incubated for three hours in 37° C. Detergent was added to each drug-treated well and incubated overnight at room temperature without exposure to light. Absorbance was measured at 570 nm using a plate reader from Tecan Group. The IC50 concentration was determined using the publicly available ED50 plus v1.0 software program. […]

The test system of test [2] is K1106. The experiment in a line: MTT cell viability assay. The conditions noted are these: K1106, PMBL, RPMI 15% FBS.
From the text: as §1
(§2) The 3-(4,5-dimethylthiazol-2-yl)-2,5-diphenyltetrazolium bromide (MTT) cell viability assay was used to determine cell viability in response to drug treatment. Five replicates per concentration tested were carried out in serial dilutions with a total of ten concentrations with a 50% reduction in drug concentration per dilution for each plate. A total of 15 μl of MTT reagent was added to each drug-treated well and incubated for three hours in 37° C. Detergent was added to each drug-treated well and incubated overnight at room temperature without exposure to light. Absorbance was measured at 570 nm using a plate reader from Tecan Group. The IC50 concentration was determined using the publicly available ED50 plus v1.0 software program.
On the technique in general: Tetrazolium assays rely on reduction of a dye to a coloured formazan, in cell work by metabolically active cells.

For test [3], the system named is L1236. In words: MTT cell viability assay. The conditions noted are these: L-1236; L1236, Hodgkin Lymphoma, RPMI 10% FBS.
From the text: as §1, §2

Test [4] has as its system Mino. The experiment in a line: MTT cell viability assay. Particulars: Homo sapiens, MantleCellLymphoma, RPMI 10% FBS.
From the text: as §1, §2

In test [5] the test system is Pfeiffer. The experiment in a line: MTT cell viability assay. The conditions noted are these: Homo sapiens, GCB DLBCL, RPMI 10% FBS.
From the text: as §1, §2

In test [6] the test system is Daudi. The experiment in a line: MTT cell viability assay. Particulars: Homo sapiens, Burkitt Lymphoma, RPMI 10% FBS.
From the text: as §1, §2

Test [7] relates to EB3. In words: MTT cell viability assay. Particulars: Homo sapiens, EB-3; EB3, Burkitt Lymphoma, RPMI 10% FBS.
From the text: as §1, §2

The subject of test [8] is Sci-1. The experiment in a line: MTT cell viability assay. The conditions noted are these: Sci-1, GCB DLBCL, RPMI 10% FBS.
From the text: as §1, §2

For test [9], the system named is PI3K pathway (p-AKT, p-S6, p-GSKalpha, p-GSKbeta) in BJAB DLBCL cells. The experiment in a line: Confirmation of pathway downregulation (Western blot) in BJAB. The conditions noted are these: for inhibition of the PI3K pathway: BJAB, time-course and dose-escalation experiments. As for the experimental part:
RIPA lysis buffer (1×PBS, 1% NP-40, 0.5% sodium deoxycholate, 0.1% SDS, 10 mmol/L sodium orthovanadate) was added to 750,000 cells and incubate on ice for 30 minutes. The mixture was spun down, and the supernatant was transferred to a new tube as the whole-cell extract. A total of 20 μg cell lysate was separated on a 4% to 18% Tris-Bis NuPAGE gel (Invitrogen) and transferred using the iBlot transfer device (Invitrogen) program 3 for seven minutes. The blots were probed with a 1:100 p-AKT, 1:1000 total AKT, 1:100p-GSK3alpha, 1:100 p-GSK3beta, or 1:100 p-s6 (Cell Signaling), or 1:5000 goat anti-β-actin (SC-47778, Santa Cruz Biotech) for one hour at room temperature. The antibodies were detected by the use of 1:10,000 goat anti-mouse-HRP conjugated antibodies (Santa Cruz Biotech). Western Blotting Luminol Reagent (Santa Cruz Biotech) was used to visualize the bands corresponding to each antibody.
One million BJAB DLBCL cells were treated with increasing doses of BEZ235, and, after six hours, the cells were analyzed for a dose-dependent effect at 15, 30, 60, 125, 250, and 500 nmol/L concentrations. Cell count and viability were measured for each concentration. […] Western blot analyses were performed to assess phosphorylation of AKT, GSK3alpha, GSK3beta, and S6.
Inhibition of the PI3K pathway by the three PI3K inhibitors was confirmed through separate time-course and dose-escalation experiments, as well as by measuring the expression of key downstream members of the pathway. The drugs were tested in the BJAB DLBCL for their effects on p-AKT, p-S6, p-GSKalpha, and p-GSKbeta. […] An associated decrease in cell viability was ruled out by quantifying the proportion of viable cells at each time point using trypan blue staining.
(In general: Immunoblotting shows a protein as a band on a membrane.)

Structures are written as SMILES. pIC50: −log10 of the molar value.

Consider `Cn1c(=O)n(-c2ccc(C(C)(C)C#N)cc2)c2c3cc(-c4cnc5ccccc5c4)ccc3ncc21` [BEZ235], for which the pIC50 in [1] was 5.05 to 8.00; in test [2], 6.27; in test [3], 7.22; in [4], 7.22; in test [5] it was 7.77; in [6] it was 7.33. The pIC50 is 7.43 in [7] and 7.46 in test [8]. Besides, the “down regulation of PI3K targets, time course” value in [9] (30 nmol/L BEZ235, three and six hours after treatment, total AKT and actin unchanged) is “time-dependent down regulation”. In addition, the “inhibition of the PI3K pathway” value in [9] is listed as “directly inhibit the PI3K pathway”.
Regarding `COc1ccc(-c2ccc3ncc4c(c3c2)n(-c2ccc(N3CCNCC3)c(C(F)(F)F)c2)c(=O)n4C)cn1` [BGT226], the pIC50 is 6.70 to 8.52 in test [1]; 7.74 in test [2]; 7.91 in test [3]; 7.98 in test [4]; 7.68 in [5]; 7.06 in test [6]. The pIC50 in [7] was 7.35; in test [8], 7.61. The “inhibition of the PI3K pathway” value in [9] is listed as “directly inhibit the PI3K pathway”.
With `Nc1cc(C(F)(F)F)c(-c2cc(N3CCOCC3)nc(N3CCOCC3)n2)cn1` [BKM120], the pIC50 was 5.11 to 6.70 in test [1]; 5.73 in test [2]; 5.95 in [3]; 6.34 in [4]; 5.98 in [5]; 5.89 in [6]. The pIC50 is 6.18 in test [7] and 6.01 in test [8]. Moreover, the “inhibition of the PI3K pathway” value in [9] is reported as “directly inhibit the PI3K pathway”.
